# Assay results published in PubChem BioAssay (NCI).
#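 The compound was tested at five concentrations on cells cultured in 96-well plates, with a 48-hour exposure period. At the TGI there is no net growth.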
# What was measured:
# Test in all cases: growth of human tumour cells (NCI), 48 h
# PC-3 prostate = tested on: PC-3 prostate
# SK-MEL-5 melanoma = tested on: SK-MEL-5 melanoma
# HCT-15 colon = tested on: HCT-15 colon
# CAKI-1 renal = tested on: CAKI-1 renal
# HOP-92 NSCLC = tested on: HOP-92 NSCLC
# HCT-116 colon = tested on: HCT-116 colon
# HOP-62 NSCLC = tested on: HOP-62 NSCLC
# MDA-MB-231 breast = tested on: MDA-MB-231 breast
# ACHN renal = tested on: ACHN renal
# TK-10 renal = tested on: TK-10 renal
# NCI-H522 lung = tested on: NCI-H522 lung
# HS 578T breast = tested on: HS 578T breast
# NCI-H226 lung = tested on: NCI-H226 lung
# HT29 colon = tested on: HT29 colon
# UACC-62 melanoma = tested on: UACC-62 melanoma
# SK-MEL-2 melanoma = tested on: SK-MEL-2 melanoma
# SF-295 CNS = tested on: SF-295 CNS
# RPMI-8226 leukemia = tested on: RPMI-8226 leukemia
# OVCAR-8 ovarian = tested on: OVCAR-8 ovarian
# EKVX NSCLC = tested on: EKVX NSCLC
# A498 renal = tested on: A498 renal
# HL-60(TB) leukemia = tested on: HL-60(TB) leukemia
# OVCAR-3 ovarian = tested on: OVCAR-3 ovarian
# CCRF-CEM leukemia = tested on: CCRF-CEM leukemia
# SNB-75 CNS = tested on: SNB-75 CNS
# SF-268 CNS = tested on: SF-268 CNS
# NCI-H23 lung = tested on: NCI-H23 lung
# UACC-257 melanoma = tested on: UACC-257 melanoma
# SK-OV-3 ovarian = tested on: SK-OV-3 ovarian
# 786-0 renal = tested on: 786-0 renal
# RXF 393 renal = tested on: RXF 393 renal
# SF-539 CNS = tested on: SF-539 CNS
# NCI-H460 lung = tested on: NCI-H460 lung
# COLO 205 colon = tested on: COLO 205 colon
# BT-549 breast = tested on: BT-549 breast
# SW-620 colon = tested on: SW-620 colon
# KM12 colon = tested on: KM12 colon
# MDA-MB-435 = tested on: MDA-MB-435
# DU-145 prostate = tested on: DU-145 prostate
# HCC-2998 colon = tested on: HCC-2998 colon
# LOX IMVI melanoma = tested on: LOX IMVI melanoma
# U251 CNS = tested on: U251 CNS
# SN12C renal = tested on: SN12C renal
# T-47D breast = tested on: T-47D breast
# MDA-N = tested on: MDA-N
# K-562 leukemia = tested on: K-562 leukemia
# SR leukemia = tested on: SR leukemia
# OVCAR-4 ovarian = tested on: OVCAR-4 ovarian
# OVCAR-5 ovarian = tested on: OVCAR-5 ovarian
# SK-MEL-28 melanoma = tested on: SK-MEL-28 melanoma
# NCI/ADR-RES ovarian = tested on: NCI/ADR-RES ovarian
# MALME-3M melanoma = tested on: MALME-3M melanoma
# IGROV1 ovarian = tested on: IGROV1 ovarian
# MCF7 breast = tested on: MCF7 breast
# SNB-19 CNS = tested on: SNB-19 CNS
# M14 melanoma = tested on: M14 melanoma
# MOLT-4 leukemia = tested on: MOLT-4 leukemia
# UO-31 renal = tested on: UO-31 renal
# A549 NSCLC = tested on: A549 NSCLC
smiles,measurement,setting,value
Cc1c(-c2ccccc2)c(C#N)c2nnn(-c3cccc(Cl)c3)c(=O)n12,TGI,PC-3 prostate,75.9 µM
same,TGI,SK-MEL-5 melanoma,> 100 µM
same,TGI,HCT-15 colon,> 100 µM
same,TGI,CAKI-1 renal,> 100 µM
same,TGI,HOP-92 NSCLC,> 100 µM
same,TGI,HCT-116 colon,> 100 µM
same,TGI,HOP-62 NSCLC,> 100 µM
same,TGI,MDA-MB-231 breast,72.9 µM
same,TGI,ACHN renal,> 100 µM
same,TGI,TK-10 renal,> 100 µM
same,TGI,NCI-H522 lung,> 100 µM
same,TGI,HS 578T breast,> 100 µM
same,TGI,NCI-H226 lung,> 100 µM
same,TGI,HT29 colon,> 100 µM
same,TGI,UACC-62 melanoma,> 100 µM
same,TGI,SK-MEL-2 melanoma,67.2 µM
same,TGI,SF-295 CNS,> 100 µM
same,TGI,RPMI-8226 leukemia,> 100 µM
same,TGI,OVCAR-8 ovarian,> 100 µM
same,TGI,EKVX NSCLC,> 100 µM
same,TGI,A498 renal,98.5 µM
same,TGI,HL-60(TB) leukemia,> 100 µM
same,TGI,OVCAR-3 ovarian,> 100 µM
same,TGI,CCRF-CEM leukemia,> 100 µM
same,TGI,SNB-75 CNS,> 100 µM
same,TGI,SF-268 CNS,> 100 µM
same,TGI,NCI-H23 lung,> 100 µM
same,TGI,UACC-257 melanoma,> 100 µM
same,TGI,SK-OV-3 ovarian,> 100 µM
same,TGI,786-0 renal,86.6 µM
same,TGI,RXF 393 renal,> 100 µM
same,TGI,SF-539 CNS,> 100 µM
same,TGI,NCI-H460 lung,> 100 µM
same,TGI,COLO 205 colon,> 100 µM
same,TGI,BT-549 breast,> 100 µM
same,TGI,SW-620 colon,> 100 µM
same,TGI,KM12 colon,> 100 µM
same,TGI,MDA-MB-435,> 100 µM
same,TGI,DU-145 prostate,> 100 µM
same,TGI,HCC-2998 colon,> 100 µM
same,TGI,LOX IMVI melanoma,> 100 µM
same,TGI,U251 CNS,> 100 µM
same,TGI,SN12C renal,> 100 µM
same,TGI,T-47D breast,> 100 µM
same,TGI,MDA-N,> 100 µM
same,TGI,K-562 leukemia,> 100 µM
same,TGI,SR leukemia,> 100 µM
same,TGI,OVCAR-4 ovarian,> 100 µM
same,TGI,OVCAR-5 ovarian,> 100 µM
same,TGI,SK-MEL-28 melanoma,> 100 µM
same,TGI,NCI/ADR-RES ovarian,> 100 µM
same,TGI,MALME-3M melanoma,> 100 µM
same,TGI,IGROV1 ovarian,> 100 µM
same,TGI,MCF7 breast,> 100 µM
O=C1C(Cl)C(c2cc3cc(Br)ccc3nc2Cl)N1c1c(Cl)cccc1Cl (configuration not stated),TGI,PC-3 prostate,> 25 µM
same,TGI,SNB-19 CNS,> 25 µM
same,TGI,SK-MEL-5 melanoma,> 25 µM
same,TGI,HCT-15 colon,> 25 µM
same,TGI,CAKI-1 renal,> 25 µM
same,TGI,HOP-92 NSCLC,> 25 µM
same,TGI,HCT-116 colon,> 25 µM
same,TGI,M14 melanoma,> 25 µM
same,TGI,HOP-62 NSCLC,> 25 µM
same,TGI,MDA-MB-231 breast,> 25 µM
same,TGI,ACHN renal,> 25 µM
same,TGI,TK-10 renal,> 25 µM
same,TGI,NCI-H522 lung,11.3 µM
same,TGI,HS 578T breast,> 25 µM
same,TGI,NCI-H226 lung,> 25 µM
same,TGI,HT29 colon,> 25 µM
same,TGI,UACC-62 melanoma,> 25 µM
same,TGI,SK-MEL-2 melanoma,> 25 µM
same,TGI,SF-295 CNS,> 25 µM
same,TGI,RPMI-8226 leukemia,23 µM
same,TGI,OVCAR-8 ovarian,> 25 µM
same,TGI,EKVX NSCLC,22.2 µM
same,TGI,A498 renal,> 25 µM
same,TGI,HL-60(TB) leukemia,> 25 µM
same,TGI,OVCAR-3 ovarian,> 25 µM
same,TGI,CCRF-CEM leukemia,20 µM
same,TGI,SNB-75 CNS,> 25 µM
same,TGI,SF-268 CNS,> 25 µM
same,TGI,NCI-H23 lung,> 25 µM
same,TGI,MOLT-4 leukemia,11.4 µM
same,TGI,UACC-257 melanoma,> 25 µM
same,TGI,SK-OV-3 ovarian,> 25 µM
same,TGI,786-0 renal,> 25 µM
same,TGI,RXF 393 renal,> 25 µM
same,TGI,SF-539 CNS,10.7 µM
same,TGI,NCI-H460 lung,> 25 µM
same,TGI,COLO 205 colon,> 25 µM
same,TGI,UO-31 renal,4.5 µM
same,TGI,BT-549 breast,> 25 µM
same,TGI,SW-620 colon,> 25 µM
same,TGI,KM12 colon,> 25 µM
same,TGI,MDA-MB-435,> 25 µM
same,TGI,DU-145 prostate,> 25 µM
same,TGI,HCC-2998 colon,> 25 µM
same,TGI,LOX IMVI melanoma,7.96 µM
same,TGI,SN12C renal,> 25 µM
same,TGI,T-47D breast,> 25 µM
same,TGI,MDA-N,> 25 µM
same,TGI,A549 NSCLC,> 25 µM
same,TGI,K-562 leukemia,18 µM
same,TGI,SR leukemia,10.7 µM
same,TGI,OVCAR-4 ovarian,11.4 µM
same,TGI,OVCAR-5 ovarian,> 25 µM
same,TGI,SK-MEL-28 melanoma,> 25 µM
same,TGI,NCI/ADR-RES ovarian,> 25 µM
same,TGI,MALME-3M melanoma,> 25 µM
same,TGI,IGROV1 ovarian,> 25 µM
same,TGI,MCF7 breast,22.6 µM
